Where two headings read alike, the source gives them in different places.
Target: T1, recombinant human sEH (Homo sapiens, UniProt P34913)
T1 sequence (P34913 1-555): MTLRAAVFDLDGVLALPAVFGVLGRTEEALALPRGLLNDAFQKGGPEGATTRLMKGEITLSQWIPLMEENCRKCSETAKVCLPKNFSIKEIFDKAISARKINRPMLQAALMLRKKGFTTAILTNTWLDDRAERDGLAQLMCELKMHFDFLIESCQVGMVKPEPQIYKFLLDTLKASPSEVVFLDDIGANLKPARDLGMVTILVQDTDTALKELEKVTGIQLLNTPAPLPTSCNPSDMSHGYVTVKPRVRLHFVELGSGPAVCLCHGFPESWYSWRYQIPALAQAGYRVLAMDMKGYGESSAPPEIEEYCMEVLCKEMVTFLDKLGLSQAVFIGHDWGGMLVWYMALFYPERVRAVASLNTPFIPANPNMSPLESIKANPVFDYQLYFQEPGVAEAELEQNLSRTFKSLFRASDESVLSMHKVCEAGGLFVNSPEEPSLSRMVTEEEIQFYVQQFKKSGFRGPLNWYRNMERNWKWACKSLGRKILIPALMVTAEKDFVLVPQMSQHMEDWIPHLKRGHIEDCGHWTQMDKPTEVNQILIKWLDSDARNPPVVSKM
Assay: fluorescence-based sEH activity assay with PHOME substrate
Format: biochemical
Source text: This assay is based on a reporter construct containing a firefly luciferase under the control of the FXR response element from bile salt export protein (BSEP). FXR and its hetero dimer partner retinoid X receptor (RXR) as expression constructs under the control of a CMV promoter as well as a constitutively expressed renilla luciferase (SV40 promoter) for normalization and toxicity control were co-transfected. […] The sEH inhibitory potency of the test compounds was quantified in a fluorescence-based assay using recombinant enzyme and the fluorogenic sEH substrate PHOME^37 that is hydrolyzed to a fluorescent 6-methoxynaphtaldehyde by sEH.
The sEH inhibitory potency of the compounds were determined in a fluorescence-based 96-well sEH activity assay using recombinant human enzyme^50,51. Non-fluorescent PHOME (3-phenylcyano-(6-methoxy-2-naphthalenyl)methyl ester 2-oxiraneacetic acid; Cayman Chemicals) which can be hydrolyzed by the sEH to fluorescent 6-methoxynaphthaldehyde served as substrate. Recombinant human sEH (in Bis-Tris buffer, pH 7, with 0.1 mg/mL BSA containing a final concentration of 0.01% Triton-X 100) was pre-incubated with test compounds (in DMSO, final DMSO concentration: 1%) for 30 min at room temperature. […] A blank control (no protein and no compound) as well as a positive control (no compound) were executed. All experiments were conducted in triplicate and repeated in at least three independent experiments. For IC50 calculation, dose-response curves of increasing compound concentrations were recorded.

With CC(C)(C)c1ccc(C(=O)NCc2ccc(NS(C)(=O)=O)cc2Cl)cc1 [compound 57, 4-(tert-Butyl)-N-(2-chloro-4-(methylsulfonamido)benzyl)benzamide] the IC50 (read-out: IC50 for sEH inhibition) was 4.1 ± 0.4 nM and the IC50 (recombinant human sEH, PHOME, read-out: sEH inhibition IC50) was 4.1 ± 0.4 nM.
